{"source": "patent US20220339257A1", "about": "“METHODS TO INCREASE THE SENSITIVITY AND REVERSING THE RESISTANCE TO DRUGS” (Biomarker Strategies, LLC, priority 2019, published 2022)", "format_in_all_cases": "cell-based", "key": {"[1]": {"system": "panel of cell lines that included NSCLC, HNSCC, melanoma, and CRC", "experiment": "WST8 in vitro sensitivity to MTAs with and without EM", "procedure": "Day 1: cells were harvested cells from flask (4 mL accutase for T175 for 3-5 minutes), and spin down for 5 mins at 1200 rpm. The supernatant was poured off, and the pellet gently resuspended in 1 mL media. Countess counts were performed, and the cells were diluted in media (10% FBS). With multi-channel pipette, 2500 cells were seeded in 100 uL of media (10% FBS) in each well of 96 well plate. The cells were let to adhere and grow for 24 hours. Day 2: serial drug dilutions of MTAs+/−EMs at 5× of concentrations (as done above) were performed in media (10% FBS). 20 uL of media form each well of the 96 well plate (80 uL media left in wells) was removed, and 20 uL of appropriate 5× drug dilutions was added to each respective well (for a 1× conc). The cells were incubated with drug for 72 hours in 37C incubator. Day 5: 10 uL of WST-8 reagent was added to each well of the 96 well plate and mixed gently. the plates were incubated up to 4 hours at 37C in dark, and absorbance readings were taken at […] and 600 nm wavelengths at 1, 2, 3 and 4h, until control absorbance levels were 1.5-2.0).\nWe used a panel of cell lines that included NSCLC, HNSCC, melanoma, and CRC. These cell lines are a good model system harboring similar (epi)genetic changes found in patients' tumors. We used the WST8 assay to determine the in vitro sensitivity to various MTAs with and without EM1."}, "[2]": {"system": "H1975 (EGFR-double mutant line)", "experiment": "MTT cell survival assay", "conditions": "erlotinib 14 μM alone; H1975; 72 hours", "procedure": "Cells (10^4 cells/well) were grown in 96-well plates and exposed for 72 hours to different doses of erlotinib, alone or in combination with EM2. The percentage of cell survival was determined using the 3-(4, 5-dimethylthiazol-2-yl)-2, 5-diphenyltetrazolium bromide (MTT). Single drug alone and vehicle were kept as controls."}, "A-253 cells": {"system": "A-253 cells", "experiment": "Western blot of protein biomarkers", "conditions": "spermidine (50 μM)+GM-CSF (50 ng/mL)", "procedure": "(§1) MTA and EM effects on protein biomarker expression were measured by western blotting. For the assay cell lines (Ca9-22, PE/CA-PJ15, HTB-38, HPAF-II, CAL27, BICR-16, A-253, Calu-6, PC-9, H1838, RPMI-7951 and A7) were cultured and treated with doses of MTAs alone, EMs alone and in combination and then lysed for protein analysis. This method can readily be conducted under adherent or suspension conditions, manually or on automated instruments, such as SnapPath. A total of 0.3×10^6 cells per well were seeded in 6 well plates with 10% FBS-containing media and incubated for 24 hours. Cells were then treated with MTA and/or EM concentrations for 24 hours. For total protein extraction, briefly, each sample media was collected, and wells were washed with HMS, and the wash was combined with its respective media collection. Cells were then detached using Accutase solution and again collected in its respective sample media and another HMS well wash and collection was performed. All cell solutions were centrifuged, washed with ice-cold PBS, and centrifuged again. Cell pellets were lysed in 250 μL of ice-cold 1× lysis buffer with protease and phosphatase inhibitor cocktails and incubated for 10 minutes on ice. Lysates were clarified with a centrifugation (14,000 rpm) for 10 minutes at 4° C. Cell lysates were quantified using Bio-Rad DC Protein Assay (Bio-Rad Cat. #5000116).\n(§2) For all western blots, an equal amount of protein (3-5 μg) was loaded into SDS-polyacrylamide gels (Mini-Protean TGX Precast Gel; Bio-Rad, e.g. 7.5%, Cat. #4561024; 10%, Cat. #4561035; 12%, Cat. #4561045; or 4-15%, Cat. #4561085). Proteins were separated at 215V for at least 30 minutes in 1× Tris/Glycine/SDS buffer (Bio-Rad Cat. #1610772) and transferred to PVDF membranes using a Trans-Blot Turbo (Bio-Rad Cat. #1704155) for 7 minutes in transfer buffer (Trans-Blot Turbo Transfer Kit, Bio-Rad Cat. #1704273). Blots were blocked at room temperature for 1 hour with 5% non-fat dry milk in tris-buffered saline with Tween 20 (TBST; 15 mM Tris-HCl, pH 7.5, 200mMNaCl and 0.1% Tween 20). Membranes were incubated with primary antibodies at 4° C. overnight and at room temperature for 1 hour the next day; all primary antibodies were diluted following manufacturer's specifications in TBST with either 5% BSA or 5% non-fat dry milk. Membranes were washed in TBST for 5 minutes, three times, and incubated with HRP-conjugated secondary antibodies diluted 1:5000 in TBST with 5% non-fat dry milk at room temperature for 1 hour (anti-rabbit IgG, Bio-Rad Cat. #1706515; or anti-mouse IgG, Bio-Rad Cat. #1706516). Membranes were then washed in TBST for 10 minutes, three times, and target proteins were identified using Clarity Western ECL Substrate (Bio-Rad Cat. #1705061) on autoradiography film (GenHunter Cat. #B581, Nashville, Tenn., USA). Other assay types, such as Luminex multiplexed immunoassays, ICC, IHC, flow cytometry, etc. can be used readily."}, "RPMI-1975": {"system": "RPMI-1975", "experiment": "HoPI live cell staining", "conditions": "single agent, 24 hours", "source_text": "(§3) A double stain of Hoechst 33342 and propidium iodide allows for the determination of cell viability with high specificity and low background noise, as compared to trypan blue staining. Hoechst 33342 is a cell permeable blue fluorescent nuclear stain which will stain all cell types. Propidium iodide is a cell impermeable red fluorescent nuclear stain that will only bind to the nuclei of cells with compromised membranes (dead cells). The staining can be performed rapidly on live cell suspensions within 15 minutes. 25 uL of 4× Hoechst 33342 Solution (40 ug/mL) and 25 uL of 4×Propidium Iodide Solution are added to 50 uL of cell suspension. The suspension was gently mixed 10 times and 50 uL was immediately transferred to a microfluidic cell counting chip. A 365 nm LED was used to excite both Hoechst 33342 and propidium iodide. Images of the cells were captured using a 10× objective lens on an Olympus microscope using a Canon EOS 6D camera using an ISO of 800 and an exposure of 2 seconds; both JPEG and RAW images were saved for analysis. The blue channel was used to measure the total number of cells and the red channel was used to measure the number of dead cells. Cell counting was performed automatically by the Image Pro software (Media Cybernetics, Inc).\nMTA and EM effects on apoptosis were measured by Hoechst-Propidium Iodide staining (HoPI). For the assay, cells were seeded in 6-well plates at 400K cells per well, in 2 mL of 10% FBS-containing media and incubated for 24 hours. At 24 hours, a 1 nM to […] range of MTA and/or 1 ng/mL to 1 mg/mL range of EM doses was added and incubated for 24 hours. After 24 hours incubation respective cells' media was collected, added the 1× HBSS wash from the plate in the respective tube. Adherent cells were detached by treating with Accutase for 6 minutes and collected in respective tubes. All samples were centrifuged for 5 minutes at 1200 RPM. […] The area, mean intensity, standard deviation of the mean intensity, minimum intensity, maximum intensity and perimeter were measured for each cellular region in the red channel and also in the blue channel. […]"}, "Ca-922 cell line": {"system": "Ca-922 cell line", "experiment": "HoPI live cell staining", "design": "concentration or dose not given beside the values", "conditions": "single agent, 24 hours", "source_text": "as §3\nMTA and EM effects on apoptosis were measured by Hoechst-Propidium Iodide staining (HoPI). For the assay, cells were seeded in 6-well plates at 400K cells per well, in 2 mL of 10% FBS-containing media and incubated for 24 hours. At 24 hours, a 1 nM to […] range of MTA and/or 1 ng/mL to 1 mg/mL range of EM doses was added and incubated for 24 hours. After 24 hours incubation respective cells' media was collected, added the 1× HBSS wash from the plate in the respective tube. Adherent cells were detached by treating with Accutase for 6 minutes and collected in respective tubes. All samples were centrifuged for 5 minutes at 1200 RPM. The cell pellets were resuspended in PBS and centrifuged again for 5 minutes at 1200 RPM. Cell pellets were resuspended in 200 uL of PBS and mixed properly to get single cell suspension. 50 uL of cell suspension was added into separate tubes having 10 uL of a 2× HOPI solution (20 ug/mL Hoechst 33342 and 20 ug/mL propidium iodide solution) to get a final concentration of Hoechst 33342 and propidium iodide to […]. Make up the volume to 100 uL with 40 uL of PBS. Samples were mixed thoroughly for even cell staining and the microfluidsic chip wells were each filled with 10 uL of sample. Chips were then incubated in the dark for 20 minutes. A 365 nm LED was used to excite both Hoechst 33342 and propidium iodide as they were visualize under a microscope. Cell images were captured using a 10× objective lens on an Olympus microscope using a Canon EOS 6D camera with an ISO of 800 and an exposure of 2 seconds; both JPEG and RAW images were saved for analysis. The blue channel was used to measure the total number of cells and the red channel was used to measure the number of dead cells. For image analysis, a copy of the image was created and converted directly into an 8-bit gray scale image. A threshold was placed on the image to create a binary mask; the threshold level was 20 intensity units out of 255 intensity units. Next, a particle analysis algorithm was applied to the binary mask and a set of cellular regions (between 100 to 800 cellular regions per image) was created. The original image was then split into red, green and blue channels. The area, mean intensity, standard deviation of the mean intensity, minimum intensity, maximum intensity and perimeter were measured for each cellular region in the red channel and also in the blue channel. The green channel was discarded. To discern between live and dead cells, the maximum intensity in the red channel was used with a threshold of 100 intensity units. Double plots were created using the intensity of the blue channel (X-axis) and the intensity of the red channel (Y-axis). […]"}, "PE/CA-PJ15 cells": {"system": "PE/CA-PJ15 cells", "experiment": "Western blot of protein biomarkers", "conditions": "spermidine (50 μM)+IL-12 (50 ng/mL)", "procedure": "as §1, §2"}}, "note": "Structures can show the parent of a compound that is named as a salt.", "data": [{"molecule": "interleukin 6 [EM4]", "values": [{"measurement": "response enhancement (in vitro sensitivity to various MTAs with and without EM, WST8)", "setting": "[1]", "value": "no, minimal and strong response enhancement"}]}, {"molecule": "C#Cc1cccc(Nc2ncnc3cc(OCCOC)c(OCCOC)cc23)c1", "note": "[erlotinib, Erlotinib hydrochloride, reference compound]", "values": [{"measurement": "cell survival (MTT), effect of erlotinib alone", "setting": "[2]", "value": "absence of effect"}]}, {"molecule": "granulocyte-macrophage colony-stimulating factor [EM10]", "values": [{"measurement": "Ki67 expression", "setting": "A-253 cells; compared to both MTA and EM alone", "value": "enhanced reduction in Ki67 expression"}, {"measurement": "LC3II expression", "setting": "A-253 cells; compared to either alone", "value": "LC3II upregulation"}, {"measurement": "p62 expression", "setting": "A-253 cells; compared to either alone", "value": "reduction in p62"}]}, {"molecule": "COc1ncc(-c2ccc3nccc(-c4ccnnc4)c3c2)cc1NS(=O)(=O)c1ccc(F)cc1F", "note": "[GSK458, Omipalisib, reference compound]", "values": [{"measurement": "reduction in live cells (HoPI)", "setting": "RPMI-1975", "value": 30, "unit": "%"}, {"measurement": "reduction in the number of live cells (HoPI)", "setting": "Ca-922 cell line", "value": 22, "unit": "%"}]}, {"molecule": "transforming growth factor-beta-1 [EM3]", "values": [{"measurement": "response enhancement (in vitro sensitivity to various MTAs with and without EM, WST8)", "setting": "[1]", "value": "no, minimal and strong response enhancement"}]}, {"molecule": "C=CC(=O)Nc1cc(Nc2nccc(-c3cn(C)c4ccccc34)n2)c(OC)cc1N(C)CCN(C)C", "note": "[osimertinib, Osimertinib, reference compound]", "values": [{"measurement": "reduction in the number of live cells (HoPI)", "setting": "Ca-922 cell line", "value": 41, "unit": "%"}]}, {"molecule": "interleukin 12 (protein, UniProt P29459 23-219; P29460 23-328, looked up, enhancer molecule, cytokine purchased from Sigma) Interleukin-12 subunit alpha: RNLPVATPDPGMFPCLHHSQNLLRAVSNMLQKARQTLEFYPCTSEEIDHEDITKDKTSTVEACLPLELTKNESCLNSRETSFITNGSCLASRKTSFMMALCLSSIYEDLKMYQVEFKTMNAKLLMDPKRQIFLDQNMLAVIDELMQALNFNSETVPQKSSLEEPDFYKTKIKLCILLHAFRIRAVTIDRVMSYLNAS Interleukin-12 subunit beta: IWELKKDVYVVELDWYPDAPGEMVVLTCDTPEEDGITWTLDQSSEVLGSGKTLTIQVKEFGDAGQYTCHKGGEVLSHSLLLLHKKEDGIWSTDILKDQKEPKNKTFLRCEAKNYSGRFTCWWLTTISTDLTFSVKSSRGSSDPQGVTCGAATLSAERVRGDNKEYEYSVECQEDSACPAAEESLPIEVMVDAVHKLKYENYTSSFFIRDIIKPDPPKNLQLKPLKNSRQVEVSWEYPDTWSTPHSYFSLTFCVQVQGKSKREKKDRVFTDKTSATVICRKNASISVRAQDRYYSSSWSEWASVPCS", "values": [{"measurement": "p62 expression", "setting": "PE/CA-PJ15 cells", "value": "increased expression"}, {"measurement": "LC3II over LC3I expression", "setting": "PE/CA-PJ15 cells; 24 hours, compared to either alone", "value": "marked increase in LC3II over LC3I expression"}]}]}
